# Values of other authors, collected in patent US5229134A, “Pharmaceutical compositions” (Laboratories Smith Kline & French, priority 1989, dated 1993).
# Details: plasma levels
smiles,measurement,value
CN/C(=N/CCSCc1nc[nH]c1C)NC#N [cimetidine],therapeutically effective concentration in plasma,0.5 mg/L
